{"source": "patent US12221494B2", "about": "“Short synthetic peptides and their uses for treating retinal degenerative diseases and/or tissue injuries” (MacKay Memorial Hospital, priority 2019, dated 2025)", "key": {"[1]": {"system": "C57BL/6 mice, dry eye induced in controlled environment chamber (CEC)", "experiment": "Dry eye animal model, corneal fluorescein staining", "format": "in vivo, mouse", "settings": "mice 14 days in CEC, then 100 μM peptide eye drop three times a day for 4 days (Day 4); day 0 score 3±0", "description": "Dry eyes were induced by placing mice in a controlled environment chamber (CEC) for 14 days in accordance with procedures previously described by Barabino et al (IVOS (2005) 46(8), 2766-2771). Mice placed in the CEC were exposed to a condition, in which relative humidity (RH) was maintained at <25%, temperature at 20-22° C., and airflow at about 15 L/min, for 12 hours per day. Control mice were kept in a normal environment (RH>50%, no air flow, temperature of 20-22° C.) for the same duration.\nA common artificial tear formulation, 1% carboxymethylcelllulose (CMC) dissolved in balanced salt solution (BSS) was used as the peptide vehicle. Peptide (100 μM, about 0.7 μg peptide in 10 μl eye drop used for treating one eye) or 1% CMC vehicle was topically administered to eyes three times a day. To test whether the present synthetic peptide could exert any therapeutic action on dry eyes, mice were housed at CEC for 14 days without topical treatment, and then were treated with the present peptide for 4 days.\nAnimals were anesthetized by an intraperitoneal injection of a mixture of zoletil (6 mg/kg) and xylazine (3 mg/kg). Corneal epithelial injury was determined by staining with topical fluorescein (Fluor-I-Strip, Ayerst Laboratories, Philadelphia, PA). Corneal fluorescein staining was examined with a slit-lamp biomicroscope under cobalt blue light and photographed with a digital camera. Dye staining of the cornea was scored in a blinded manner as follows: score 0 for no punctuate staining; score 1 when less than one third of the cornea was stained; score 2 when two thirds or less was stained; and score 3 when more than two thirds was stained (Horwath-Winter J 2013).\nBriefly, mice were housed at controlled environment chamber (CEC) for 14 days (set as Day 0) to induce corneal surface disruption. Corneal fluorescein staining was used to estimate the corneal surface injury and the animal with a staining score of 2 (after mice placed at CEC for 14 days) was subjected to peptide treatment. The 6-mer variant peptide formulation for the treatment of DED was described in Methods. […]"}, "[2]": {"system": "STZ-induced diabetic mice", "experiment": "Vascular abnormalities (FITC-BSA hemorrhaging areas) in the retina of STZ-induced diabetic mice", "format": "in vivo, mouse", "settings": "200 μM eye drop three times a day for 14 days, vehicle control 8.2±1.5", "description": "Diabetic mice were generated by intraperitoneal injection of streptozotocin (STZ; 200 mg/kg body weight) at day 1 and day 3. STZ was freshly prepared in 0.1 M citrate buffer (pH 4.5). After injection, mice were supplied with 10% sucrose overnight to prevent sudden hypoglycaemic shock. After 1 week (day 7), mice with non-fasting blood glucose levels >500 mg/dl were defined as diabetic and used for the experiments. Balanced salt solution (BSS) was served as peptide vehicle (Alcon, Novartis). 6-mer analogues (dissolved in BSS to 200 μM) eye drop were topically administered to eyes three times a day. After 2 weeks (day 14), mice were intraperitoneal injection of 100 mg/kg of FITC-BSA for further 30 min to determine vascular lesions (hemorrhaging areas) in retina. Subsequently, the animals were euthanized by CO2 inhalation, and the eyes were enucleated and fixed with 4% PFA for overnight at 4° Cand flat-mounted onto glass slides to obtain optical sections. Vascular lesions in the retina was scored in all four retinal quadrants of flat mounts by an epifluorescence microscopy at 200×. Three microscopic fields were sampled in each quadrant in both the central and peripheral retina, and data were presented as the average number of lesions/retina.\nMicroscopic appearance of degenerate capillaries in the I/R-induced retina are similar to that of acellular capillaries found in diabetic retinopathy. […]"}, "[3]": {"system": "survivin mRNA", "experiment": "Real-time qPCR of survivin mRNA in C2C12 cells", "format": "cell-based, mouse", "settings": "C2C12 cells in low serum media, 20 μM peptide, 6 h", "description": "Total RNA was extracted from cells using TRIzol (Invitrogen). Synthesis of cDNA was performed with 1 μg of total RNA at 50° C. for 50 min using oligo(dT) primers and reverse transcriptase (Superscript III; Invitrogen). Briefly, quantification of cDNA was performed in the LightCycler (Roche, Mannheim, Germany) using the DNA Master SYBR Green I kit (Roche) with the following cycling conditions: initial denaturation at 95° C. for 10 min, followed by 40 cycles at 95° C. for 10 s, 60° C. for 10 s, and 72° C. for 10 s and a 5-min terminal incubation at 72° C. The data were calculated with AACt. The expression was then normalized against the expression of glyceraldehyde-3-phosphate dehydrogenase (GAPDH). The PCR primers were mouse Survivin sense, 5′-[…]-3′ (SEQ ID NO: 27), anti-sense, 5′-[…]-3′ (SEQ ID NO: 28) (accession number: NM_001012273.1; PCR product: 136 bp); mouse GAPDH sense, 5′-[…]-3′ (SEQ ID NO: 29), anti-sense, 5′-[…]-3′ (SEQ ID NO: 30) (NM_001289726.1; 149 bp). For analysis rabbit inflammatory gene expression, The PCR primers were rabbit TNF-αsense, 5′-[…]-3′ (SEQ ID NO: 31), anti-sense, 5′-[…]-3′ (SEQ ID NO: 32) (accession number: NM 001082263.1); rabbit IL-1βsense, 5′-[…]-3′(SEQ ID NO: 33), anti-sense, 5′-[…]-3′ (SEQ ID NO: 34) (NM 001082201.1); rabbit GAPDH sense, 5′-[…]-3′ (SEQ ID NO: 35), anti-sense, 5′-[…]-3′ (SEQ ID NO: 36) (accession number:NM 001082253.1). The cycle threshold (Ct) values of the PCR product and a GAPDH (Glyceraldehyde 3-phosphate dehydrogenase) control mRNA were used to calculate relative quantities of mRNA.\nSimilar to the approach in Example 1.2.1, the expression level of survivin mRNA in C2C12 cells was used as an indicator for the function of the 6-mer variants in Tables 3 to 5. Briefly, C2C12 cells in low serum media were treated with 20 μM the 6-mer variants for 6 h. […] The results also confirmed that alanine substation at the glutamic acid (E) residues would severely impair the 6-mer activity."}}}
{"substance": "NH2-(D-Ser)-Leu-Gly-Ala-Glu-Gln-COOH (SLGAEQ; HELM PEPTIDE1{[dS].L.G.A.E.Q}$$$$V2.0; SMILES CC(C)C[C@H](NC(=O)[C@H](N)CO)C(=O)NCC(=O)N[C@@H](C)C(=O)N[C@@H](CCC(=O)O)C(=O)N[C@@H](CCC(N)=O)C(=O)O) [6-mer dS]", "values": [{"measurement": "corneal fluorescein staining score", "setting": "[1]", "result": "1.4±0.2", "unit": "score"}, {"measurement": "numbers of vascular lesions (hemorrhaging areas in a retina)", "setting": "[2]", "result": "2.8±0.6", "unit": "lesions/retina"}, {"measurement": "survivin mRNA induction, in words", "setting": "[3]", "result": "increased the level of survivin mRNA"}]}
